Calls of active or inactive are those of the source. The calls are words filed in the database; no cut-off is given here.
Tests used:
MCF7 = experiment: Antiproliferative activity against human MCF7 cells assessed as inhibition of cell growth at 1.5 to 6 uM incubated for 5 days by CCK-8 assay; type: functional, cell-based; details: dose 1.5-6 µM, time 5.0 day
[1] = Acute toxicity in ICR mouse assessed as liver lesions at 5000 mg/kg, po administered as single dose and measured every 2 days for 14 days by H and E staining based analysis; type: organism-based; details: in vivo, 336 h, time 14 day
[2] = Acute toxicity in ICR mouse assessed as heart lesions at 5000 mg/kg, po administered as single dose and measured every 2 days for 14 days by H and E staining based analysis; type: organism-based; details: in vivo, 336 h, time 14 day
[3] = Tmax in Sprague-Dawley rat 1 mg/kg, iv by LC/MS/MS analysis; type: ADME, organism-based; details: in vivo
[4] = Toxicity in BALB/c mouse xenografted with human MCF7 cells assessed as increase in body weight at 100 to 150 mg/kg, po administered once daily and measured every 2 days for 23 days; type: organism-based; details: in vivo, 552 h, dose 100-150 mg/kg, time 23 day

With `CCN1CCc2cc(-c3nc(Nc4ccc(N5CCNCC5)cn4)ncc3F)ccc2C1=O` the inhibition (MCF7) was “Active”, the Activity [1] was “Non-Toxic” and the Activity [2] was “Non-Toxic”. The Tmax [3] was 1.98 min and the Activity [4] was “Non-Toxic”.
